Entries after “also recorded” stand apart in the source; their conditions may differ.
Legend:
[1] = tested on: HIV; conditions: cited from earlier work; for inhibition of HIV infection, result in words: percent HIV infection of target T cells, 6.25–25 µM, replotted from a previous publication
Description: Its sequence is shown here for comparison with the synthetically modified caerin 1.1 peptide. Amino acid modifications to the caerin 1.1 and to the caerin 1.9 peptides are shown in bold type with gray shading. […] Thus, we first tested these four peptides for effects on growth of L. rhamnosus. […] To evaluate both parameters at once, we plotted the patterns of inhibition of HIV infection from a previous publication on the same axes as the new data for effects on L. rhamnosus and L. crispatus growth. […] Among all of the ...

[2] = tested on: bacteria; conditions: cited from earlier work; for antibacterial activity, previously shown: control peptides, for caerin 1.3 against most of the bacteria tested
Description: Its sequence is shown here for comparison with the synthetically modified caerin 1.1 peptide. Amino acid modifications to the caerin 1.1 and to the caerin 1.9 peptides are shown in bold type with gray shading. All of the peptides studied have many simil ...

[3] = tested on: Lactobacillus crispatus, ATCC 33197; experiment: Bacterial growth assay, Lactobacillus crispatus; type: cell-based; conditions: 24 h, 37 °C, O.D. 630 nm; for inhibition of L. crispatus growth at highest concentration: 50 µM peptide, MRS broth; for inhibition of L. crispatus growth at lower concentrations: concentrations of 25 µM or less; for effect on L. crispatus growth, result in words: peptide tested at 0.4 or 0.8 to 50 µM
Procedure: (§1) Bacterial strains were obtained from the American Type Culture Collection (Lactobacillus crispatus, ATCC® 33197™; Lactobacillus rhamnosus, ATCC® 39595™; Neisseria lactamica (ATCC® 23970™). Growth assays were conducted to determine the concentrations at which each peptide inhibited the growth of the three bacterial species. The Lactobacillus bacteria were grown in de Man, Rogosa, and Sharpe (MRS) broth and the N. lactamica in Fastidious Broth. Bacterial cells were cultured in broth for 24 to 48 h until they reached an optical density of about 0.1 O.D. units at 630 nm and diluted to achieve a concentration of 10^6 cells per mL. The peptides were serially diluted with sterile water to reach peptide concentrations of 0.4, 0.8, 1.6, 3.12, 6.25, 12.5, 25, and 50 µM final concentrations in culture. The bacterial cells at 10^6 cells/mL and the peptides were plated in triplicate in a 96-well plate. Included was a negative control for growth (three to five replicates of bacteria plus penicillin-streptomycin), a positive control for growth (three to five replicates of bacteria plus water), and a blank (three to five replicates of broth plus water) to ensure the broth was not contaminated. Bacterial cells were plated in 50 µL of broth, and each dilution of peptides was added in a volume of 50 µL to achieve a total volume of 100 µL. For the positive control, 50 µL of sterile water was added to 50 µL of cells in broth. For the negative control, 50 µL of the antibiotic solution was added to 50 µL of cells in broth. The O.D. of each well was recorded before and after a 24-h incubation period at 37 °C using a Biotek ELx808 reader (Biotek, Winooski, VT, USA). Data for representative experiments are expressed as average O.D. ± standard error of the mean at each peptide concentration. To express data from replicate experiments, the average as percent growth in comparison with the positive (no peptide) control set at 100% for the range of concentrations from 6.25–50 µM is shown. […] A p-value of less than 0.05 was considered significant.

[4] = tested on: T lymphocytes or endocervical cell lines; conditions: cited from earlier work
[5] = tested on: Lactobacillus rhamnosus, ATCC 39595; experiment: Bacterial growth assay, Lactobacillus rhamnosus; type: cell-based; conditions: for inhibition of L. rhamnosus growth at highest concentration: 50 µM peptide (50 µm [sic]), one-way ANOVA with Tukey's post hoc test; for inhibition of L. rhamnosus growth, result in words: peptide tested at 0.4 or 0.8 to 50 µM; for viability as measured by 24-h growth of L. rhamnosus: range of concentrations 0.4–25 µM; for reduction of L. rhamnosus growth: vs no-peptide control
Procedure: as §1

[6] = tested on: Neisseria lactamica (ATCC 23970); experiment: Bacterial growth assay, Neisseria lactamica; type: cell-based; conditions: tested twice; 0.8 to 50 µM; 24 h, 37 °C
Procedure: Bacterial strains were obtained from the American Type Culture Collection (Lactobacillus crispatus, ATCC® 33197™; Lactobacillus rhamnosus, ATCC® 39595™; Neisseria lactamica (ATCC® 23970™). Growth assays were conducted to determine the concentrations at which each peptide inhibited the growth of the three bacterial species. The Lactobacillus bacteria were grown in de Man, Rogosa, and Sharpe (MRS) broth and the N. lactamica in Fastidious Broth. Bacterial cells were cultured in broth for 24 to 48 h until they reached an optical density of about 0.1 O.D. units at 630 nm and diluted to achieve a concentration of 10^6 cells per mL. The peptides were serially diluted with sterile water to reach peptide concentrations of 0.4, 0.8, 1.6, 3.12, 6.25, 12.5, 25, and 50 µM final concentrations in culture. The bacterial cells at 10^6 cells/mL and the peptides were plated in triplicate in a 96-well plate. […] The O.D. of each well was recorded before and after a 24-h incubation period at 37 °C using a Biotek ELx808 reader (Biotek, Winooski, VT, USA). Data for representative experiments are expressed as average O.D. ± standard error of the mean at each peptide concentration. […]

[7] = 25 µM peptide, MRS broth, 24 h, 37 °C, O.D. 630 nm

GLLSVLGSVAKHVLPHVVPVIAEHL-NH2 [caerin 1.1, antimicrobial peptide from Litoria caerulea, reference compound]
inhibition of HIV (transmission), previous studies [1]: less effective in the inhibition of HIV transmission than other caerin family peptides | antibacterial spectrum [2]: wide-spectrum anti-bacterial agents

GLFGVLGSIAKHVLPHVVPVIAEKL-NH2 [caerin 1.9, caerin 1 antimicrobial peptide, origin L. chloris]
inhibition of HIV (transmission), previous studies [1]: very effective inhibitors of HIV | inhibition of HIV infection, result in words [1]: best profile of inhibition of HIV | inhibition of L. crispatus growth at highest concentration [3]: inhibitory | inhibition of L. crispatus growth at lower concentrations [3]: almost no inhibition | effect on L. crispatus growth, result in words [3]: least apparent inhibition of growth of both tested lactobacilli | antibacterial spectrum [2]: wide-spectrum anti-bacterial agents | toxicity to T lymphocytes or endocervical cell lines [4]: limited toxicity | average bacterial growth of L. rhamnosus ([5]; 25 µM peptide, percent growth vs no-peptide control set at 100%, 10^6 cells/mL, MRS broth, 24 h, 37 °C, O.D. 630 nm, average of replicate experiments): about 83% | inhibition of L. rhamnosus growth at highest concentration ([5]; 24 h, 37 °C, O.D. 630 nm): significantly inhibited growth | inhibition of L. rhamnosus growth, result in words ([5]; 24 h, 37 °C, O.D. 630 nm): least apparent inhibition of growth of both tested lactobacilli | viability as measured by 24-h growth of L. rhamnosus [5]: remained quite high

GLLSVLGSVAKHVLPHVVPVIAAAL-NH2 [caerin 1.1 mod 7, synthetically modified caerin 1.1 peptide]
inhibition of HIV infection, result in words [1]: equal or greater inhibition of HIV infection than caerin 1.9 | inhibition of L. rhamnosus growth, result in words ([5]; 24 h, 37 °C, O.D. 630 nm): inhibited the growth of L. rhamnosus more than caerin 1.9; also recorded: inhibited growth to a greater extent than the previous four

GLFGVLGSIAKHLLPHVVPVIAEKL-NH2 [caerin 1.9 sm, synthetic analog of caerin 1.9 with a single amino acid change]
inhibition of HIV infection, result in words [1]: equal or greater inhibition of HIV infection than caerin 1.9 | inhibition of L. rhamnosus growth, result in words ([5]; 24 h, 37 °C, O.D. 630 nm): inhibited the growth of L. rhamnosus more than caerin 1.9; also recorded: inhibited growth to a greater extent than the previous four

GLFGILGSVAKHVLPHVIPVVAEHL-NH2 [caerin 1.20, caerin 1 antimicrobial peptide, origin L. caerulea/L. splendida]
inhibition of HIV (transmission), previous studies [1]: very effective inhibitors of HIV | inhibition of HIV infection, result in words [1]: slightly less effective in the inhibition of HIV | antibacterial spectrum [2]: wide-spectrum anti-bacterial agents | toxicity to T lymphocytes or endocervical cell lines [4]: limited toxicity | reduction of L. rhamnosus growth [5, 7]: 40–55% | inhibition of L. rhamnosus growth at highest concentration ([5]; 24 h, 37 °C, O.D. 630 nm): significantly inhibited growth | inhibition of L. rhamnosus growth, result in words ([5]; 24 h, 37 °C, O.D. 630 nm): slightly more inhibitory against L. rhamnosus than caerin 1.9 | viability as measured by 24-h growth of L. rhamnosus [5]: remained quite high

GLLSVLGSVAQHVLPHVVPVIAEHL-NH2 [caerin 1.3, caerin 1 antimicrobial peptide, origin L. caerulea; control peptide]
inhibition of HIV infection, result in words [1]: inhibited HIV less than caerin 1.9 | effect on L. crispatus growth, result in words [3]: largely unaffected; also recorded: very limited inhibition of both species of lactobacilli | antibacterial activity, previously shown [2]: reduced antibacterial activity | inhibition of L. rhamnosus growth, result in words ([5]; 24 h, 37 °C, O.D. 630 nm): very limited inhibition of both species of lactobacilli; also recorded: almost no inhibition at any dose tested

GLLSSLSSVAKHVLPHVVPVIAEHL-NH2 [caerin 1.4, caerin 1 antimicrobial peptide, origin L. caerulea, L. gilleni; control peptide]
inhibition of HIV infection, result in words [1]: inhibited HIV less than caerin 1.9 | effect on L. crispatus growth, result in words [3]: largely unaffected; also recorded: very limited inhibition of both species of lactobacilli | antibacterial activity, previously shown [2]: reduced antibacterial activity | inhibition of L. rhamnosus growth, result in words ([5]; 24 h, 37 °C, O.D. 630 nm): very limited inhibition of both species of lactobacilli; also recorded: almost no inhibition at any dose tested

GLLSVLGSVAKHVLPHVVPVIAEKL-NH2 [caerin 1.10, caerin 1 antimicrobial peptide, origin L. splendida]
inhibition of HIV (transmission), previous studies [1]: very effective inhibitors of HIV | inhibition of HIV infection, result in words [1]: effective inhibitors of HIV infection | inhibition of L. crispatus growth at highest concentration [3]: no inhibition | antibacterial spectrum [2]: wide-spectrum anti-bacterial agents | toxicity to T lymphocytes or endocervical cell lines [4]: limited toxicity | reduction of L. rhamnosus growth [5, 7]: 40–55% | inhibition of L. rhamnosus growth at highest concentration ([5]; 24 h, 37 °C, O.D. 630 nm): significantly inhibited growth | viability as measured by 24-h growth of L. rhamnosus [5]: remained quite high

GLLGVLGSVAKHVLPHVVPVIAEHL-NH2 [caerin 1.2, caerin 1 antimicrobial peptide, origin L. caerulea]
inhibition of N. lactamica growth, comparison in words [6]: less effective against N. lactamica than caerin 1.9 and caerin 1.10 | inhibition of HIV (transmission), previous studies [1]: very effective inhibitors of HIV | inhibition of HIV infection, result in words [1]: effective inhibitors of HIV infection | inhibition of L. crispatus growth at highest concentration [3]: inhibitory | inhibition of L. crispatus growth at lower concentrations [3]: almost no inhibition | antibacterial spectrum [2]: wide-spectrum anti-bacterial agents | toxicity to T lymphocytes or endocervical cell lines [4]: limited toxicity | reduction of L. rhamnosus growth [5, 7]: 40–55% | inhibition of L. rhamnosus growth at highest concentration ([5]; 24 h, 37 °C, O.D. 630 nm): significantly inhibited growth | viability as measured by 24-h growth of L. rhamnosus [5]: remained quite high
